Data published in the NIST ThermoML archive (doi:10.1021/je050464i).
“And” between values parts separate entries of the source, which are not always exact repeats. Equal values may be shown once.

Conditions: Crystal, Calculated from knudsen effusion weight loss

[Pd] [palladium]
Conditions | vapor or sublimation pressure
1473 K | 1e-05 kPa
1498 K | 2e-05 kPa
1523 K | 3e-05 kPa
1548 K | 6e-05 kPa
1573 K | 9e-05 kPa
1576 K | 9e-05 kPa
1598 K | 0.000141 kPa
1600 K | 0.00011 kPa
1626 K | 0.0002 kPa
1648 K | 0.00028 kPa
1650 K | 0.00026 kPa
1660 K | 0.0005 kPa
1673 K | 0.0004 kPa and 0.0004 kPa and 0.0004 kPa
1676 K | 0.00044 kPa
1685 K | 0.00067 kPa
1698 K | 0.0005 kPa and 0.00076 kPa and 0.00058 kPa
1700 K | 0.00061 kPa
1706 K | 0.0009 kPa
1723 K | 0.00108 kPa [middle of 4 runs]
1726 K | 0.00094 kPa
1740 K | 0.0012 kPa
1748 K | 0.0016 kPa and 0.0016 kPa and 0.0012 kPa
1750 K | 0.00131 kPa
1773 K | 0.002 kPa and 0.0022 kPa
1776 K | 0.002 kPa
1798 K | 0.0024 kPa and 0.0029 kPa
1800 K | 0.0027 kPa
1802 K | 0.0024 kPa
1806 K | 0.002 kPa
1823 K | 0.004 kPa
1825 K | 0.0037 kPa
1840 K | 0.0047 kPa
1848 K | 0.0048 kPa
1850 K | 0.0053 kPa
1860 K | 0.0061 kPa
1873 K | 0.008 kPa and 0.0076 kPa
1883 K | 0.0066 kPa
1885 K | 0.0082 kPa
1898 K | 0.01 kPa and 0.0094 kPa
1900 K | 0.0098 kPa
1910 K | 0.0109 kPa
1912 K | 0.0111 kPa
1923 K | 0.013 kPa and 0.014 kPa
1925 K | 0.0125 kPa
1940 K | 0.015 kPa
1942 K | 0.0157 kPa
1948 K | 0.018 kPa and 0.017 kPa and 0.021 kPa
1950 K | 0.0174 kPa and 0.0166 kPa
1954 K | 0.021 kPa
1963 K | 0.02 kPa and 0.0201 kPa
1965 K | 0.0203 kPa and 0.0204 kPa
1970 K | 0.024 kPa
1972 K | 0.022 kPa
1973 K | 0.022 kPa and 0.024 kPa and 0.02 kPa
